System: M. tuberculosis ompA mutant
Assay type: cell-based

| Compound | Sensitivity of M. tuberculosis ompA mutant compared to wild type |
| --- | --- |
| CN[C@H](CC(C)C)C(=O)N[C@H]1C(=O)N[C@@H](CC(N)=O)C(=O)N[C@H]2C(=O)N[C@H]3C(=O)N[C@H](C(=O)N[C@H](C(=O)O)c4cc(O)cc(O)c4-c4cc3ccc4O)[C@H](O)c3ccc(c(Cl)c3)Oc3cc2cc(c3O[C@@H]2O[C@H](CO)[C@@H](O)[C@H](O)[C@H]2O[C@H]2C[C@](C)(N)[C@H](O)[C@H](C)O2)Oc2ccc(cc2Cl)[C@H]1O [vancomycin] | slightly increased resistance |
| CC[C@H]1OC(=O)[C@H](C)[C@@H](O[C@H]2C[C@@](C)(OC)[C@@H](O)[C@H](C)O2)[C@H](C)[C@@H](O[C@@H]2O[C@H](C)C[C@H](N(C)C)[C@H]2O)[C@](C)(O)C[C@@H](C)C(=O)[C@H](C)[C@@H](O)[C@]1(C)O [erythromycin] | slightly increased resistance |
